In experiment [1] the target is T1, GABAA receptors composed of α1, β2 and γ2S subunits (Homo sapiens, UniProt P14867+P18507+P47870).
T1 construct: expressed in transfected cells; host or cells: Xenopus laevis oocytes (stage V-VI), injected with cRNA transcribed from cDNA templates in pCMV vector; α1:β2:γ2S cRNA ratio 1:1:10
Kind of experiment: Modulation of GABA-induced chloride currents (IGABA), two-microelectrode voltage-clamp in Xenopus laevis oocytes expressing GABAA receptors. Format: cell-based. The settings on record: for Stimulation of IGABA (%): 100 µM of compound, GABA EC3-10 concentration; for Maximal stimulation of IGABA: GABA EC3-10, α1β2γ2S receptors. On the procedure:
Preparation of stage V-VI oocytes from Xenopus laevis, synthesis of capped off run-off poly(A^+) cRNA transcripts from linearized cDNA templates (pCMV vector) was performed as described (Khom et al. 2000). Briefly, female Xenopus laevis (NASCO, USA) were anaesthetised by exposing them for 15 minutes to a 0.2 % solution of MS-222 (methane sulfonate salt of 3-aminobenzoic acid ethyl ester; Sandoz) before surgically removing parts of the ovaries. Follicle membranes from isolated oocytes were enzymatically digested with 2 mg/ml collagenase (Type 1A, Sigma). One day after isolation, the oocytes were injected with about 10-50 nl of DEPC- treated water ([…], Sigma, Germany) containing the different cRNAs at a concentration of approximately 150 - 3000 ng/µl/subunit. The amount of cRNA was determined by means of a NanoDrop ND-1000 (Kisker-biotech, Steinfurt, Germany).
To ensure expression of the gamma-subunit, cRNAs were mixed in a ratio of 1:1:10 (Boileau et al., 2002). Oocytes were stored at 18°C in ND96 solution (Methfessel et al., 1986). Electrophysiological experiments were done using the two-microelectrode voyage-clamp method at a holding potential of -70 mV making use of a TURBO TEC 01C amplifier (npi electronic, Tamm, Germany) and an Axon Digidata 1322A interface (Molecular Devices, Sunnyvale, CA). Using pCLAMP v.9.2 data acquisition was carried out. The bath solution contained 90 mM NaCl, 1 mM KCI, 1 mM MgCl2·6H2O, 1 mM CaCl2 and 5 mM HEPES (pH 7.4). Microelectrodes were filled with 2M KCl and had resistances between 1 and 3 MΩ (Khom et al., 2007).
GABA and compound (extract, fraction or pure compound) were applied by means of fast perfusion system (see Baburin et al., 2006 for detail Drug or control solutions were applied by means of a TECAN Miniprep 60 permitting automation of the experiments. Oocytes with maximal current amplitudes >3 µA were discarded to exclude voltage-clamp errors (Khom et al., 2007).
Stimulation of chloride currents by modulators of the GABAA receptor was measured at a GABA concentration eliciting between 3 and 10% of the maximal current amplitude (EC3-10). The EC3-10 was determined at the beginning of each experiment. Enhancement of the chloride current was defined as (I(GABA+Comp)/IGABA) - 1, where I(GABA+Comp) is the current response in the presence of a given compound (extract, fraction or pure compound) and IGABA is the control GABA current. To measure the sensitivity of the GABAA receptor for a given compound, it was applied for an equilibration period of 1 minute before applying GABA ([…]). Concentration-response curves were generated and the data were fitted by non-iinear regression analysis using Origin software (OriginLab Corporation, USA). Data were fitted to the equation: (1)/(1 + (((EC50)/([Comp])))^nH), [formula] where nH is the Hill coefficient. Each data point represents the mean ± S.E. from at least 4 oocytes and ≥ 2 oocyte batches. Statistical significance was calculated using paired Student t-test with a confidence interval of p < 0.05.
As described above, dried and cut sub-aerial parts of A. racemosa were grinded and extracted with methanol. The resulting crude extract (A0) was subsequently partitioned between water and organic solvents of increasing polarity giving diethyl ether (A1), ethyl acetate (A2) and 1-butanol (A3) fractions. Obtained extracts and the remaining aqueous layer (A4) were tested for their ability to modulate IGABA at a concentration of 100 µg/mL. To analyse the modulation of IGABA by black cohosh extracts and isolated compounds, GABAA receptors composed of α1, β2 and γ2s subunits were expressed in Xenopus oocytes. Stimulation of IGABA was analysed by means of the 2-microelectrode voyage-clamp technique. These and all subsequent experiments were carried out at a GABA EC3-10 concentration.

The subject of experiment [2] is mice. Briefly: Open Field Test (OF). Format: in vivo, mice (C57BI/6N). The settings on record: for distance traveled in the open field in 10 min: 20 mg/kg/bodyweight i.p., 30 min prior to testing, control 38.2 ± 1.8 m. The method, then: (§1) Male mice (C57BI/6N) were obtained from Charles River Laboratories (Germany).
(§2) For maintenance mice were group housed with free access to food and water. Temperature was fixed to 23°C and 60% humidity with a 12 h light-dark cycle (lights on 0700-1900 hours). Mice at 3-8 months age were tested in all experiments (Khom et al., 2010).
(§3) Mice were transferred to the testing facility 24 h before commencement of experiments. Tests were performed between 0900 and 1300 hours. All tests were evaluated by an experimenter blinded to the administered compound, 30 min prior to testing animals were injected either with saline (0.9% NaCl-solution) as a control or with 23-O-acetylshengmanol-3-O-β-D-xylopyranosid (i.e., compound 4) and actein (i.e., compound 1), respectively (50 mg/250 µL stock prepared in 100% DMSO) at the indicated doses (0.2 mg/kg, 0.6 mg/kg, 2 mg/kg, 6 mg/kg, 20 mg/kg and 60 mg/kg bodyweight). All injection solutions contained 3% Polysorbat 80 and 10% of DMSO.
To determine explorative behaviour mice treated (n=9 for all doses) with compound 4 and control (n=11 mice were studied in the OF.
Open field behavior was tested over 10 min in a 50x50 cm box equipped with infrared rearing detection. Illumination was set to 150 lux. Explorative behavior was recorded and analyzed using the ActiMot 2 equipment (infrared beams) and software (TSE-systems, Bad Homburg, Germany). Arenas were subdivided into border (up to 8 cm from wall), center (20x20 cm, ie 16% of total area), and intermediate area according to the recommendations of EMPRESS (European Mouse Phenotyping Resource of Standardised Screens; http://empress.har.mrc.ac.uk).

The subject of experiment [3] is mice. Kind of experiment: Stress-induced Hyperthermia Test (SIH). The experiment is classed as in vivo, mice (C57BI/6N). On the procedure:
as §1, §2, §3
A temperature probe, lubricated with petrolatum, was inserted into the rectum of the mouse for a depth of up to 2 cm. […]
Prior to i.p injection of compound or saline the basal body temperature was determined. 3h after i.p injection, temperature was measured twice by means of a TH-5 Thermalert Monitoring Thermometer combined with a RET-3 rectal probe for mice. […]

The test system of experiment [4] is mice. Kind of experiment: Light/Dark Choice Test (LDT). Format: in vivo, mice (C57BI/6N). On the procedure:
as §1, §2, §3
Explorative behavior in a brightly lit area (400 lux) was investigated by insertion of a black box into the open field arena, covering one third of the space. Time spent and distance travelled was measured over a 10 min period in the open area. One small field directly at the entrance to the black box was assigned as transition zone. To reach the larger compartment assigned as open area, the mouse had to leave the dark area completely. Behaviour was recorded and analyzed by means of the ActiMot2 system and software (TSE-systems, Bad Homburg, Germany).

In experiment [5] the target is T1, GABAA receptors composed of α1, β2 and γ2S subunits. Briefly: Modulation of GABA-induced chloride currents (IGABA), two-microelectrode voltage-clamp in Xenopus laevis oocytes expressing GABAA receptors. The experiment is classed as cell-based. The settings on record: IGABA-max induced by application of 1mM GABA; data not shown.

T1 sequence (P14867 28-456): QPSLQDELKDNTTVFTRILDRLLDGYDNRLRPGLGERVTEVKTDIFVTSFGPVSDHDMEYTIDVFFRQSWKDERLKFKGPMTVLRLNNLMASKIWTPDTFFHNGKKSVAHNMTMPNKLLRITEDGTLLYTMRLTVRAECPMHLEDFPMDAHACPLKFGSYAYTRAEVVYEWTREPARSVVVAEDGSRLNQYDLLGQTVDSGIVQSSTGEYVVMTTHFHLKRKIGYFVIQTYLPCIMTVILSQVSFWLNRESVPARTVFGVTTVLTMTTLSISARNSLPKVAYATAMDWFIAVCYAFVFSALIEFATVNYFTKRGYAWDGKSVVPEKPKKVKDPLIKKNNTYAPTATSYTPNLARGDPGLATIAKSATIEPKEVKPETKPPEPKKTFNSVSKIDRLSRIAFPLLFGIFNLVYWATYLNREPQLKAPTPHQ
T1 sequence (P47870 26-512): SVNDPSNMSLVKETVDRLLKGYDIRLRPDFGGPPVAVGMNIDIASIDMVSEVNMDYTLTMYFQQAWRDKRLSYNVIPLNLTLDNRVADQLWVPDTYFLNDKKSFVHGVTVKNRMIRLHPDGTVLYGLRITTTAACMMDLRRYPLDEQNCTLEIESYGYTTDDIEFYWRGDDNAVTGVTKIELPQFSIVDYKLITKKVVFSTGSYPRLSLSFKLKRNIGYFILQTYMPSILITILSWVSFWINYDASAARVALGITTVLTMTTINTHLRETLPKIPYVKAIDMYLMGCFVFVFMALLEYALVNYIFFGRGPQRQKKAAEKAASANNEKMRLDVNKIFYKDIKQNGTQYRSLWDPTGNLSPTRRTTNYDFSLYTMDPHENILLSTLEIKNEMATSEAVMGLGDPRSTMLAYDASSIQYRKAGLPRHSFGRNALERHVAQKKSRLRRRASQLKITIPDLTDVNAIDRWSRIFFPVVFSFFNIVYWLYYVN
T1 sequence (P18507 40-467 isoform P18507-1 limits assumed): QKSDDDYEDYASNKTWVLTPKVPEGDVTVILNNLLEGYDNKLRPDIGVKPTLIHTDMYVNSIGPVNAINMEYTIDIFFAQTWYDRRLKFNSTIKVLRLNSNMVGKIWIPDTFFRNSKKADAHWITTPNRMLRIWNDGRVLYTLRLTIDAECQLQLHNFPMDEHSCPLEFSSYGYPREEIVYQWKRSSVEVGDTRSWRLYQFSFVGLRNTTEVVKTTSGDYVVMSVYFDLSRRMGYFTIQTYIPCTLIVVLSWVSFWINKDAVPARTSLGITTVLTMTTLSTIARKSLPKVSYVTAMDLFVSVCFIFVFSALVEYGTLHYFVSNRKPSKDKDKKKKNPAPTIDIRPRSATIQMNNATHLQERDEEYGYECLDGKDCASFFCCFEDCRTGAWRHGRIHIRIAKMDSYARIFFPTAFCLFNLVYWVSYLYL

Turning to 12-acetylacteol [Compound 1a], the “Stimulation of IGABA (%)” value in experiment [1] was determined as 126 ± 29%.

What is called EC50 is the concentration needed to bring the measured effect to its halfway point. Regarding `CC(=O)O[C@@H]1C[C@@]23C[C@@]24CC[C@H](O[C@@H]2OC[C@@H](O)[C@H](O)[C@H]2O)C(C)(C)[C@@H]4CC[C@H]3[C@]2(C)C[C@@H]3O[C@]4(C[C@@H](C)[C@@H]3[C@@]12C)O[C@H](O)[C@@]1(C)O[C@@H]41` [Compound 1, actein], in the experiment with mice [2], the “distance traveled in the open field in 10 min” value amounted to 30.6 ± 2.1 m. Besides, in experiment [1], the concentration for a half-maximal effect (EC50) was 36 ± 14 µM. Also, the “Maximal stimulation of IGABA” value in experiment [1] (compound 4 at 300 µM) stood at 378 ± 64%.

Consider `CC(=O)OC1CC23CC24CCC(OC2OCC(O)C(O)C2O)C(C)(C)C4CCC3C2(C)CC3OC4(CC(C)C3C12C)OCC1(C)OC14` (centres unmarked) [Compound 2, 26-deoxyactein], for which, in experiment [1], the “Stimulation of IGABA (%)” value worked out at 10 ± 6%.

Consider `CC(=O)O[C@@H]1C[C@@]23C[C@@]24CC[C@H](O[C@@H]2OC[C@@H](O)[C@H](O)[C@H]2O)C(C)(C)[C@@H]4CC[C@H]3[C@]2(C)C[C@@H]3O[C@@]4(C[C@@H](C)[C@@H]3[C@@]12C)OC[C@@]1(C)O[C@@H]41` [Compound 3, 23-epi-26-deoxyactein], for which the “Stimulation of IGABA (%)” value in experiment [1] is 10 ± 4%.

In the case of `CC(=O)OC(CC(C)C1C(=O)C(O)C2(C)C3CCC4C(C)(C)C(OC5OCC(O)C(O)C5O)CCC45CC35CCC12C)C1OC1(C)C` [Compound 4, 23-O-acetylshengmanol-3-O-β-D-xylopyranoside], in the experiment with mice [3] (6 mg/kg/bodyweight i.p., 3h after injection, control 1.2 ± 0.1°), the “body temperature increase upon stress (ΔT)” value is given as 0.1 ± 0.1 °. Further, in the experiment with mice [3] (i.p., doses of Figure 9), the “body temperature increase upon stress (ΔT) compared to control” value is “significantly (p<0.05) smaller increase”. Besides, the “distance traveled in the open field in 10 min” value with mice [2] is recorded as 22.6 ± 2.8 m. Besides, in the experiment on mice [2] (doses ≥2 mg/kg/bodyweight i.p.), the “ambulation in all areas of the OF and overall ambulation compared to control” value is reported as “significantly (p<0.05) decreased ambulation”. In addition, in the experiment on mice [2] (doses ≥20 mg/kg i.p.), the “reduced distance compared to control littermates” value is recorded as “approximately 50%”. The “distance travelled in the lit area” value in the experiment with mice [4] (i.p., data not shown) is “without significant effects”. Also, in the experiment on mice [4] (ip, 0.6 mg/kg, 10 min), the “time spent in the lit area (400 Lux)” value is given as 265 ± 52 s. The “Transitions from the dark compartment to the lit area” value in the experiment with mice [4] (vs vehicle group, data not shown) is on record as “did not differ”. Further, a half-maximal effect in experiment [1] (EC50) was put at 27 ± 8 µM. In addition, the “IGABA enhancement, times stronger than the other isolated compounds” value in experiment [1] (100 µM, GABA EC3-10) is “about 10 times”. In addition, the “chloride currents induced in the absence of GABA” value in experiment [5] was ≤ 1 % of IGABA-max.

Regarding `CC(=O)O[C@H](C[C@@H](C)[C@H]1C(=O)[C@H](O)[C@@]2(C)[C@@H]3CC[C@H]4C(C)(C)[C@@H](O)CC[C@@]45C[C@@]35CC[C@]12C)[C@@H]1OC1(C)C` [Compound 4a, 23-O-acetylshengmanol], the “Stimulation of IGABA (%)” value in experiment [1] was 64 ± 14%.

Take `CC(=O)O[C@@H]1C[C@@]23C[C@@]24CC[C@H](O[C@@H]2OC[C@@H](O)[C@H](O)[C@H]2O)C(C)(C)[C@@H]4CC=C3[C@]2(C)C[C@@H]3O[C@@]4(O)[C@H](OC(C)(C)[C@H]4O)[C@@H](C)[C@@H]3[C@@]12C` [Compound 5, cimiracemoside F]: in experiment [1], the “Stimulation of IGABA (%)” value was found to be 5 ± 2%.

Turning to `C[C@@H]1C[C@H]2O[C@@]3(O[C@@H]2C(C)(C)O)[C@H](O)[C@@]2(C)[C@@H]4CC[C@H]5C(C)(C)[C@@H](O[C@@H]6OC[C@@H](O)[C@H](O)[C@H]6O)CC[C@@]56C[C@@]46CC[C@]2(C)[C@@H]13` [Compound 6, cimigenol-3-O-β-D-xylopyranoside], the EC50 in experiment [1] stood at 28 ± 17 µM. The “Maximal stimulation of IGABA” value in experiment [1] (compound 4 at 300 µM) was determined as 256 ± 40%.

In the case of `CC(=O)OC(C)(C)[C@H]1O[C@@]23O[C@@H]1C[C@@H](C)[C@@H]2[C@@]1(C)CC[C@@]24C[C@@]25CC[C@H](O[C@@H]2OC[C@H](O)[C@H](O)[C@H]2O)C(C)(C)[C@@H]5CC[C@H]4[C@]1(C)[C@H]3O` [Compound 8, 25-O-acetylcimigenol-3-O-α-L-arabinopyranoside], the 50% effective concentration (EC50) in experiment [1] was determined as 26 ± 7 µM. In experiment [1] (compound 4 at 300 µM), the “Maximal stimulation of IGABA” value is reported as 289 ± 45%. Further, in experiment [1] (read-out: Maximal stimulation of IGABA, GABA EC3-10, α1β2γ2S receptors, compound 4 at 300 µM), the Emax at 300 µM was < 300%.

`C=C(C)[C@H]1O[C@@]23O[C@@H]1C[C@@H](C)[C@@H]2[C@@]1(C)CC[C@@]24C[C@@]25CC[C@H](O[C@@H]2OC[C@@H](O)[C@H](O)[C@H]2O)C(C)(C)[C@@H]5CC[C@H]4[C@]1(C)[C@H]3O` [Compound 10, 25-O-anhydrocimigenol-3-O-β-D-xylopyranoside]: in experiment [1], a half-maximal effect (EC50) was put at 26 ± 7 µM and the “Stimulation of IGABA (%)” value is reported as -76 ± 7%.
